# Test results taken from patent US9388142B2, “Quinazolinone derivatives as PARP inhibitors” (MERCK PATENT GMBH, priority 2012, dated 2016).
# How the values were obtained:
# [1] = system: tankyrase 1/2; assay: Cellular inhibition of tankyrase: increase of Axin2 level in DLD1 cells (Luminex); assay type: cell-based; conditions: read-out: EC50 tankyrase 1/2 (cell assay), 24 hours
# Experimental: Measurement of Cellular Inhibition of Tankyrase
# Cells of the colon carcinoma cell line DLD1 are plated in 96 well plates with 1.5×10^4 cells per well. Next day, cells are treated with a serial dilution of test compound in seven steps as triplicates with a final DMSO concentration of 0.3%. After 24 hours, cells are lysed in lysis buffer (20 mM Tris/HCl pH 8.0, 150 mM NaCl, 1% NP40, 10% Glycerol) and lysates are cleared by centrifugation through a 96 well filter plate (0.65 μm). […] The amount of isolated Axin2 protein is determined in a Luminex^200 machine (Luminex Corporation) according to the manufacturer's instruction by counting 100 events per well. […] For analysis, the obtained data are normalized against the untreated solvent control and fitted for determination of the EC50 values using the Assay Explorer software (Accelrys).
# [2] = molecular target: T1, His-tagged Parp-1 (Homo sapiens, UniProt P09874); assay: PARP-1 autoparsylation assay (HTRF); assay type: biochemical
# T1 construct: purchased Enzo Life Sciences GmbH, Lörrach, Germany
# T1 sequence (P09874 whole entry): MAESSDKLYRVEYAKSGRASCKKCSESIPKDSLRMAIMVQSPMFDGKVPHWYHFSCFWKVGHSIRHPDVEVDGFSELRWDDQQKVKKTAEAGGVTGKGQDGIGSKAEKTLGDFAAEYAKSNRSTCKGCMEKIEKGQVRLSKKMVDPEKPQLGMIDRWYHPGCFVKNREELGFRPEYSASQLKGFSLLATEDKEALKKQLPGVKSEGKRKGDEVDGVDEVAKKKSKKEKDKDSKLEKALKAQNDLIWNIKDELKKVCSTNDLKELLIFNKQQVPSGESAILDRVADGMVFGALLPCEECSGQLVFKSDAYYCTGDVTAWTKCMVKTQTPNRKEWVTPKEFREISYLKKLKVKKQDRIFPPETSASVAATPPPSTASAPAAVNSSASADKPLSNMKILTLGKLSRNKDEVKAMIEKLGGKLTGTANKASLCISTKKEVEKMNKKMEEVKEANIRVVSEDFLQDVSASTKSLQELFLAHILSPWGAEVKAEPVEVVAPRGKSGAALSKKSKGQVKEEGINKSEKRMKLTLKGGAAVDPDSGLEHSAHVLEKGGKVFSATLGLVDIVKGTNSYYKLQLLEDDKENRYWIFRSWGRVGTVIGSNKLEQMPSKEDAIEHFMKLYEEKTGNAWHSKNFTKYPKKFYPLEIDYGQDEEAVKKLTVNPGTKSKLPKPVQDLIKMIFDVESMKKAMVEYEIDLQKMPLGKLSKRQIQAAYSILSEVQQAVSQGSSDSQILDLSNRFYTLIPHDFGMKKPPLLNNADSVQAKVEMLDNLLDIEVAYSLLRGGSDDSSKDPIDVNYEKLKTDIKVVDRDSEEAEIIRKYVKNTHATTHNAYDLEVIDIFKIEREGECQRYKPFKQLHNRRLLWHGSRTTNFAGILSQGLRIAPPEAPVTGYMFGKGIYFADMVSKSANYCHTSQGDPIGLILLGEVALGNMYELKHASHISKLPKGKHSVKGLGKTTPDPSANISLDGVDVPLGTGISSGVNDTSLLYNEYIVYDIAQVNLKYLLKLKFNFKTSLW
# Excerpt: Description of the PARP1 Assay
# Biochemical Activity Testing of PARP-1: Autoparsylation Assay
# The autoparsylation assay is run in two steps: the enzymatic reaction in which His-tagged Parp-1 transfers biotinylated ADP-ribose/ADP-ribose to itself from biotinylated NAD/NAD as co-substrate and the detection reaction where a time resolved FRET between cryptate labelled anti-His antibody bound to the His tag of the enzyme and Xlent® labelled-streptavidin bound the biotin-parsylation residue is analysed. The autoparsylation activity is detectable directly via the increase in HTRF signal.
# The autoparsylation assay is performed as 384-well HTRF® (Cisbio, Codolet, France) assay format in Greiner low volume nb 384-well microtiter plates. 35 nM His-tagged Parp-1 (human, recombinant, Enzo Life Sciences GmbH, Lörrach, Germany) and a mixture of 125 nM bio-NAD (Biolog, Life science Inst., Bremen, Germany) and 800 nM NAD as co-substrate are incubated in a total volume of 6 μl (100 mM Tris/HCl, 4 mM Mg-chloride, 0.01% IGEPAL® CA630, 1 mM DTT, 0.5% DMSO, pH 8, 13 ng/μl activated DNA (BPS Bioscience, San Diego, US)) in the absence or presence of the test compound (10 dilution concentrations) for 150 min at 23° C. The reaction is stopped by the addition of 4 μl of the Stop/detection solution (70 nM SA-Xlent® (Cisbio, Codolet, France), 2.5 nM Anti-His-K® (Eu-labelled anti-His, Cisbio, Codolet, France) in 50 mM HEPES, 400 mM KF, 0.1% BSA, 20 mM EDTA, pH 7.0). After 1 h incubation at room temperature the HTRF iss measured with an Envision multimode reader (Perkin Elmer LAS Germany GmbH) at excitation wavelength 340 nm (laser mode) and emission wavelengths 615 nm and 665 nm. The ratio of the emission signals is determined. The full value used is the inhibitor-free reaction. The pharmacological zero value used is Olaparib (LClabs, Woburn, US) in a final concentration of 1 The inhibitory values (IC50) are determined using either the program Symyx Assay Explorer® or Condosseo® from GeneData.
# [3] = molecular target: T2, GST-tagged Tnks-1 (1023-1327 aa) (Homo sapiens, UniProt O95271); assay: TNKS1 activity ELISA (autoparsylation assay); assay type: biochemical; conditions: read-out: IC50 TNKS1 ELISA
# T2 construct: GST-tagged Tnks-1 (1023-1327 aa, prepared in-house); made in house
# T2 sequence (O95271 1023-1327): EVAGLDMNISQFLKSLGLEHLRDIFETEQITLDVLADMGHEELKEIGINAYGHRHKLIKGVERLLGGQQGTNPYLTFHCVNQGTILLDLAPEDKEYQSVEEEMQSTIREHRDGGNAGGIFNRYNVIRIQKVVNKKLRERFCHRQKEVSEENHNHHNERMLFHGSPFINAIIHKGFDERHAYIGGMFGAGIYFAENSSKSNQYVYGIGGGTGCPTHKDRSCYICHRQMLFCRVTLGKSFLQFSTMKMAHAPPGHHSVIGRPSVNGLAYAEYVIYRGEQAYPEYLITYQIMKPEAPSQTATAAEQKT
# Experimental: (§1) Description of the TNKS1 and TNKS2 ELISA Assay
# (§2) Then the activity assay with biotinylated NAD is performed in the absence/presence of the compounds. During the enzymatic reaction GST tagged TNKS transfers biotinylated ADP-ribose to itself from biotinylated NAD as co-substrate. For the detection streptavidin-HRP conjugate is added that binds to the biotinylated TNKS and is thereby captured to the plates. The amount of biotinylated resp. autoparsylated TNKS is detected with a luminescence substrate for HRP. The level of the luminescence signal correlates directly with the amount of autoparsylated TNKS and therefore with activity of TNKS.
# (§3) The activity ELISA is performed in 384 well Glutathione coated microtiter plates (Express capture Glutathione coated plate, Biocat, Heidelberg, Germany). The plates are pre-equilibrated with PBS. […] The plates are washed 3 times with PBS-Tween-20. The wells are blocked by incubation at room temperature for 20 minutes with 50 μl blocking buffer (PBS, 0.05% Tween-20, 0.5% BSA). Afterwards the plates are washed 3 times with PBS-Tween-20. […] The reaction is stopped by 3 times washing with PBS-Tween-20. For the detection 50 μl of 20 ng/μl Streptavidin, HRP conjugate (MoBiTec, Gottingen, Germany) in PBS/0.05% Tween-20/0.01% BSA are added and the plates are incubated for 30 minutes at room temperature. After three times washing with PBS-Tween-20 50 μl of SuperSignal ELISA Femto Maximum sensitivity substrate solution (ThermoFisherScientific (Pierce), Bonn, Germany) are added. Following a 1 minute incubation at room temperature luminescence signals are measured with an Envision multimode reader (Perkin Elmer LAS Germany GmbH) at 700 nm. The full value used is the inhibitor-free reaction. […] The inhibitory values (IC50) are determined using either the program Symyx Assay Explorer® or Condosseo® from GeneData.
# [4] = molecular target: GST-tagged Tnks-2 (873-1166 aa) (Homo sapiens, UniProt Q9H2K2); assay: biochemical
# Sequence of GST-tagged Tnks-2 (873-1166 aa) (Q9H2K2 873-1166): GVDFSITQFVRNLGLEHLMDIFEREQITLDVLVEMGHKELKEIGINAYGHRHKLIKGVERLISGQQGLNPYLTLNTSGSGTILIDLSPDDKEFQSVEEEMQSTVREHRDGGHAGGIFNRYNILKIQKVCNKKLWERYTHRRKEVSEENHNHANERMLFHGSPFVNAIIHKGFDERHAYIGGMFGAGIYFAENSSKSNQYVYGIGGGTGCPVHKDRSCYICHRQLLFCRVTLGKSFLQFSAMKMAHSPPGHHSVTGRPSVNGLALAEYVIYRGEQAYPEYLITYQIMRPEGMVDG
# Experimental: as §1, §2, §3
Structure (SMILES),EC50 [1],IC50 [2],IC50 [3],IC50 [4]
"CCC(O)(CC)c1ccc(-c2nc3ccc(F)cc3c(=O)[nH]2)cc1 [Compound A14, 2-[4-(1-ethyl-1-hydroxy-propyl)phenyl]-6-fluoro-3H-quinazolin-4-one]",< 300 nM,300 to 3000 nM,< 300 nM,< 300 nM
"O=c1[nH]c(-c2ccc(C3(O)CCCC3)cc2)nc2ccc(F)cc12 [Compound A16, 6-fluoro-2-[4-(1-hydroxycyclopentyl)phenyl]-3H-quinazolin-4-one]",300 to 3000 nM,300 to 3000 nM,< 300 nM,< 300 nM
"CC(C)(O)c1ccc(-c2nc3c(F)cc(F)c(F)c3c(=O)[nH]2)cc1 [Compound A26, 5,6,8-trifluoro-2-[4-(1-hydroxy-1-methyl-ethyl)-phenyl]-3H-quinazolin-4-one]",< 300 nM,300 to 3000 nM,< 300 nM,< 300 nM
"Cc1cc(F)cc2c(=O)[nH]c(-c3ccc(N4CCC(O)CC4)cc3)nc12 [Compound A29, 6-fluoro-2-[4-(4-hydroxy-piperidin-1-yl)-phenyl]-8-methyl-3H-quinazolin-4-one]",< 300 nM,< 300 nM,< 300 nM,< 300 nM
"Cc1cc(F)cc2c(=O)[nH]c(-c3ccc(N4CCC(CO)CC4)cc3)nc12 [Compound A31, 6-fluoro-2-[4-(4-hydroxymethyl-piperidin-1-yl)-phenyl]-8-methyl-3H-quinazolin-4-one]",< 300 nM,300 to 3000 nM,< 300 nM,< 300 nM
